{
  "source": "patent US20080318947A1",
  "about": "“Inhibitors of Akt Activity” (priority 2005, published 2008)",
  "assay_in_all_cases": "AKT enzyme assay (substrate phosphorylation, SPA)",
  "type_in_all_cases": "biochemical",
  "key": {"AKT1": {"target": "T1, AKT1 (Homo sapiens, UniProt P31749)", "T1 construct": "Insect cells expressing His-tagged AKT1 (aa 136-480) are lysed; His; made in house; host or cells: insect cells", "T1 sequence (P31749 136-480)": "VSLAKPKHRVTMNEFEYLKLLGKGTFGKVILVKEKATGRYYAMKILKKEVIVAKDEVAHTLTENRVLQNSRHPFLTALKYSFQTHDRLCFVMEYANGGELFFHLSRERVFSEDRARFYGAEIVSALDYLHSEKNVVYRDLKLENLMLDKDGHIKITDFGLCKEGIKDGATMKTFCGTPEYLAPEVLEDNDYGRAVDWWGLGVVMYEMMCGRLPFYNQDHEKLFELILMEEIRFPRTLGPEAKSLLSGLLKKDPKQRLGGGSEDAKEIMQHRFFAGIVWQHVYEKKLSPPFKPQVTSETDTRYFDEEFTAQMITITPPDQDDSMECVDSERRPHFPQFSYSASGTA", "details": "10 nM activated AKT enzyme, 4 uM ATP, 8 uM peptide, 40 minutes at room temperature; read-out: IC50 value against AKT1", "method": "Cell debris are removed by centrifuging at 28,000×g for 30 minutes. The supernatant is filtered through a […] filter then loaded onto a nickel-chelating column pre-equilibrated with lysis buffer. The column is washed with 5 column volumes (CV) of lysis buffer then with 5 CV of 20% buffer B, where buffer B is 25 mM HEPES, 100 mM NaCl, 300 mM imidazole; pH 7.5. […] The sample is then chromatographed over a Q-Sepharose HP column pre-equilibrated with buffer C. The column is washed with 5 CV of buffer C then step eluted with 5 CV 10% D, 5 CV 20% D, 5 CV 30% D, 5 CV 50% D and 5 CV of 100% D; where buffer D is 25 mM HEPES, 1000 mM NaCl; pH 7.5. […] The protein is pooled, concentrated and frozen at −80 C.\n(§1) Compounds of the present invention are tested for AKT 1, 2, and 3 protein serine kinase inhibitory activity in substrate phosphorylation assays. This assay examines the ability of small molecule organic compounds to inhibit the serine phosphorylation of a peptide substrate. The substrate phosphorylation assays use the catalytic domains of AKT 1, 2, or 3. AKT 1, 2 and 3 are also commercially available from Upstate USA, Inc. The method measures the ability of the isolated enzyme to catalyze the transfer of the gamma-phosphate from ATP onto the serine residue of a biotinylated synthetic peptide SEQ. ID NO: 5 (Biotin-ahx-[…]-amide). Substrate phosphorylation is detected by the following procedure:\n(§2) Assays are performed in 384 well U-bottom white plates. […] ATP/well, 1 mM CHAPS, 2 mM DTT, and 1 ul of test compound in 100% DMSO. The reaction is stopped by the addition of 50 ul SPA bead mix (Dulbecco's PBS without Mg^2+ and Ca^2+, 0.1% Triton X-100, 5 mM EDTA, 50 uM ATP, 2.5 mg/ml Streptavidin-coated SPA beads.) The plate is sealed, the beads are allowed to settle overnight, and then the plate is counted in a Packard Topcount Microplate Scintillation Counter (Packard Instrument Co., Meriden, Conn.).\n(§3) The data for dose responses are plotted as % Control calculated with the data reduction formula 100*(U1−C2)/(C1−C2) versus concentration of compound where U is the unknown value, C1 is the average control value obtained for DMSO, and C2 is the average control value obtained for 0.1M EDTA. Data are fitted to the curve described by: y=((Vmax*x)/(K+x)) where Vmax is the upper asymptote and K is the IC50."}, "AKT2": {"target": "T2, AKT2 (Homo sapiens, UniProt P31751)", "T2 construct": "His-tagged AKT2 (aa 138-481) and His-tagged AKT3 (aa 135-479) are isolated; His; made in house; host or cells: insect cells (by 'similar fashion' to AKT1)", "T2 sequence (P31751 138-481)": "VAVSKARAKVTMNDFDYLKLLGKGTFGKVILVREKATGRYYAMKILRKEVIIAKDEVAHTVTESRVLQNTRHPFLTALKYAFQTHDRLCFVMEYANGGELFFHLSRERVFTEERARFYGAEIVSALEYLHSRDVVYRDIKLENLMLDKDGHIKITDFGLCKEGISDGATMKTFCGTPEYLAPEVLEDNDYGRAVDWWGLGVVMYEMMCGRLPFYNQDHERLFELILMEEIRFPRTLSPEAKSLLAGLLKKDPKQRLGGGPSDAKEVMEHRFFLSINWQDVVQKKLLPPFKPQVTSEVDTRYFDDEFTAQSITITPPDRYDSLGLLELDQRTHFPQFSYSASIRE", "details": "10 nM activated AKT enzyme, 4 uM ATP, 8 uM peptide, 40 minutes at room temperature; read-out: IC50 value against AKT2", "method": "as §1, §2, §3"}, "AKT3": {"target": "T3, AKT3 (Homo sapiens, UniProt Q9Y243)", "T3 construct": "His-tagged AKT3 (aa 135-479) are isolated and purified in a similar fashion; His; made in house; host or cells: insect cells (by 'similar fashion' to AKT1)", "T3 sequence (Q9Y243 135-479)": "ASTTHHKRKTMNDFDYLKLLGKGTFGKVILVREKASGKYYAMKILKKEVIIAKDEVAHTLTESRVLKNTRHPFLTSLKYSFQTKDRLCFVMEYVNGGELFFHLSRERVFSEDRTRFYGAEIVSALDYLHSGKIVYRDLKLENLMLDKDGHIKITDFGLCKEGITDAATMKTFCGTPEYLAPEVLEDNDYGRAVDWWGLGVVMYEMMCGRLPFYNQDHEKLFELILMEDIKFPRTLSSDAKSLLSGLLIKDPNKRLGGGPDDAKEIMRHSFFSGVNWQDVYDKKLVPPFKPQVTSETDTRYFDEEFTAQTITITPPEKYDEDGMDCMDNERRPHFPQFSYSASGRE", "details": "10 nM activated AKT enzyme, 4 uM ATP, 8 uM peptide, 40 minutes at room temperature; read-out: IC50 value against AKT3", "method": "as §1, §2, §3"}},
  "data": [
    {"smiles": "CCn1c(-c2nonc2N)nc2c(C#CC(C)(C)O)nc(OC(CN)c3cccc4c3OCO4)cc21", "note": "(racemic) [Example 92, 4-[6-{[2-amino-1-(1,3-benzodioxol-4-yl)ethyl]oxy}-2-(4-amino-1,2,5-oxadiazol-3-yl)-1-ethyl-1H-imidazo[4,5-c]pyridin-4-yl]-2-methyl-3-butyn-2-ol]", "values": [
      {"measurement": "IC50", "setting": "AKT1", "result": "≤ 500", "unit": "nM"},
      {"measurement": "IC50", "setting": "AKT2", "result": "≤ 500", "unit": "nM"},
      {"measurement": "IC50", "setting": "AKT3", "result": "≤ 500", "unit": "nM"}
    ]},
    {"smiles": "CCn1c(-c2nonc2N)nc2c(C#CC(C)(C)O)nc(OC(CN)c3cccc4c3OCO4)cc21", "note": "(single isomer, unassigned) [Example 93, 4-[6-{[2-amino-1-(1,3-benzodioxol-4-yl)ethyl]oxy}-2-(4-amino-1,2,5-oxadiazol-3-yl)-1-ethyl-1H-imidazo[4,5-c]pyridin-4-yl]-2-methyl-3-butyn-2-ol]", "values": [
      {"measurement": "IC50", "setting": "AKT1", "result": "≤ 500", "unit": "nM"},
      {"measurement": "IC50", "setting": "AKT2", "result": "≤ 500", "unit": "nM"},
      {"measurement": "IC50", "setting": "AKT3", "result": "≤ 500", "unit": "nM"}
    ]},
    {"smiles": "CCn1c(-c2nonc2N)nc2c(C#CC(C)(C)O)nc(OC(CN)C3CCCCC3)cc21", "note": "(single isomer, unassigned) [Example 123, 4-[6-[(2-amino-1-cyclohexylethyl)oxy]-2-(4-amino-1,2,5-oxadiazol-3-yl)-1-ethyl-1H-imidazo[4,5-c]pyridin-4-yl]-2-methyl-3-butyn-2-ol]", "values": [
      {"measurement": "IC50", "setting": "AKT1", "result": "≤ 500", "unit": "nM"},
      {"measurement": "IC50", "setting": "AKT2", "result": "≤ 500", "unit": "nM"},
      {"measurement": "IC50", "setting": "AKT3", "result": "≤ 500", "unit": "nM"}
    ]},
    {"smiles": "CCn1c(-c2nonc2N)nc2c(C#CC(C)(C)O)nc(OC[C@H](N)Cc3ccccc3)cc21", "note": "[Example 43, 4-(2-(4-amino-1,2,5-oxadiazol-3-yl)-6-{[(2R)-2-amino-3-phenylpropyl]oxy}-1-ethyl-1H-imidazo[4,5-c]pyridin-4-yl)-2-methyl-3-butyn-2-ol]", "values": [
      {"measurement": "IC50", "setting": "AKT1", "result": "≤ 500", "unit": "nM"},
      {"measurement": "IC50", "setting": "AKT3", "result": "≤ 500", "unit": "nM"}
    ]},
    {"smiles": "CCn1c(-c2nonc2N)nc2c(C#CC(C)(C)O)nc(OC(CN)c3ccccc3)cc21", "note": "(centres unmarked) [Example 77, 4-{2-(4-amino-1,2,5-oxadiazol-3-yl)-6-[(2-amino-1-phenylethyl)oxy]-1-ethyl-1H-imidazo[4,5-c]pyridin-4-yl}-2-methyl-3-butyn-2-ol]", "values": [
      {"measurement": "IC50", "setting": "AKT3", "result": "≤ 500", "unit": "nM"}
    ]},
    {"smiles": "CCn1c(-c2nonc2N)nc2c(C#CC(C)(C)O)nc(O[C@@H](CN)c3ccccc3)cc21", "note": "[Example 86, 4-(2-(4-amino-1,2,5-oxadiazol-3-yl)-6-{[(1R)-2-amino-1-phenylethyl]oxy}-1-ethyl-1H-imidazo[4,5-c]pyridin-4-yl)-2-methyl-3-butyn-2-ol]", "values": [
      {"measurement": "IC50", "setting": "AKT3", "result": "≤ 500", "unit": "nM"}
    ]},
    {"smiles": "CCn1c(-c2nonc2N)nc2c(C#CC(C)(C)O)nc(OC(CN)Cc3ccccc3)cc21", "note": "(centres unmarked) [Example 106, 4-(2-(4-amino-1,2,5-oxadiazol-3-yl)-6-{[2-amino-1-(phenylmethyl)ethyl]oxy}-1-ethyl-1H-imidazo[4,5-c]pyridin-4-yl)-2-methyl-3-butyn-2-ol]", "values": [
      {"measurement": "IC50", "setting": "AKT1", "result": "≤ 500", "unit": "nM"},
      {"measurement": "IC50", "setting": "AKT2", "result": "≤ 500", "unit": "nM"},
      {"measurement": "IC50", "setting": "AKT3", "result": "≤ 500", "unit": "nM"}
    ]},
    {"smiles": "CCn1c(-c2nonc2N)nc2c(C#CC(C)(C)O)nc(O[C@@H](CCN)c3ccccc3)cc21", "note": "[Example 108, 4-(2-(4-amino-1,2,5-oxadiazol-3-yl)-6-{[(1S)-3-amino-1-phenylpropyl]oxy}-1-ethyl-1H-imidazo[4,5-c]pyridin-4-yl)-2-methyl-3-butyn-2-ol]", "values": [
      {"measurement": "IC50", "setting": "AKT3", "result": "≤ 500", "unit": "nM"}
    ]},
    {"smiles": "CCn1c(-c2nonc2N)nc2c(C#CC(C)(C)O)nc(O[C@@H](c3ccccc3)[C@H]3CCCN3)cc21", "note": "[Example 117, 4-[2-(4-amino-1,2,5-oxadiazol-3-yl)-1-ethyl-6-([(S)-phenyl[(2R)-2-pyrrolidinyl]methyl]oxy)-1H-imidazo[4,5-c]pyridin-4-yl]-2-methyl-3-butyn-2-ol]", "values": [
      {"measurement": "IC50", "setting": "AKT1", "result": "≤ 500", "unit": "nM"},
      {"measurement": "IC50", "setting": "AKT2", "result": "≤ 500", "unit": "nM"},
      {"measurement": "IC50", "setting": "AKT3", "result": "≤ 500", "unit": "nM"}
    ]},
    {"smiles": "CCn1c(-c2nonc2N)nc2c(C#CC(C)(C)O)nc(OC(CN)c3cccc(OC)c3)cc21", "note": "(centres unmarked) [Example 132, 4-[6-({2-amino-1-[3-(methyloxy)phenyl]ethyl}oxy)-2-(4-amino-1,2,5-oxadiazol-3-yl)-1-ethyl-1H-imidazo[4,5-c]pyridin-4-yl]-2-methyl-3-butyn-2-ol]", "values": [
      {"measurement": "IC50", "setting": "AKT1", "result": "≤ 500", "unit": "nM"},
      {"measurement": "IC50", "setting": "AKT2", "result": "≤ 500", "unit": "nM"},
      {"measurement": "IC50", "setting": "AKT3", "result": "≤ 500", "unit": "nM"}
    ]},
    {"smiles": "CCn1c(-c2nonc2N)nc2c(C#CC(C)(C)O)nc(OC[C@H](N)Cc3ccccc3Cl)cc21", "note": "[Example 143, 4-[6-{[(2R)-2-amino-3-(2-chlorophenyl)propyl]oxy}-2-(4-amino-1,2,5-oxadiazol-3-yl)-1-ethyl-1H-imidazo[4,5-c]pyridin-4-yl]-2-methyl-3-butyn-2-ol]", "values": [
      {"measurement": "IC50", "setting": "AKT1", "result": "≤ 500", "unit": "nM"},
      {"measurement": "IC50", "setting": "AKT2", "result": "≤ 500", "unit": "nM"},
      {"measurement": "IC50", "setting": "AKT3", "result": "≤ 500", "unit": "nM"}
    ]},
    {"smiles": "CCn1c(-c2nonc2N)nc2c(C#CC(C)(C)O)nc(OC(CN)c3cccc(Cl)c3)cc21", "note": "(centres unmarked) [Example 151, 4-[6-{[2-amino-1-(3-chlorophenyl)ethyl]oxy}-2-(4-amino-1,2,5-oxadiazol-3-yl)-1-ethyl-1H-imidazo[4,5-c]pyridin-4-yl]-2-methyl-3-butyn-2-ol]", "values": [
      {"measurement": "IC50", "setting": "AKT1", "result": "≤ 500", "unit": "nM"},
      {"measurement": "IC50", "setting": "AKT2", "result": "≤ 500", "unit": "nM"},
      {"measurement": "IC50", "setting": "AKT3", "result": "≤ 500", "unit": "nM"}
    ]},
    {"smiles": "CCn1c(-c2nonc2N)nc2c(C#CC(C)(C)O)nc(OC(CN)c3ccccc3Cl)cc21", "note": "(centres unmarked) [Example 152, 4-[6-{[2-amino-1-(2-chlorophenyl)ethyl]oxy}-2-(4-amino-1,2,5-oxadiazol-3-yl)-1-ethyl-1H-imidazo[4,5-c]pyridin-4-yl]-2-methyl-3-butyn-2-ol]", "values": [
      {"measurement": "IC50", "setting": "AKT1", "result": "≤ 500", "unit": "nM"},
      {"measurement": "IC50", "setting": "AKT2", "result": "≤ 500", "unit": "nM"},
      {"measurement": "IC50", "setting": "AKT3", "result": "≤ 500", "unit": "nM"}
    ]}
  ]
}
